Where two headings read alike, the source gives them in different places. Some results are limits rather than exact numbers.

For data set [1], the system named is PSAPP mice. The data set can be described thus: Plaque load in cortex and hippocampus by amyloid beta immunostaining. Format: in vivo, mouse. The note with it: for immunoreactivity of β1-40 in cortex: FIG. 2A; for immunoreactivity of β1-40 in hippocampus: FIG. 2B. As to the method:
PSB0474 was systemically administered to PSAPP mice via intraperitoneal injection for 2, 4 and 6 consecutive days. In one group, prior to evaluation and following to administration for 6 consecutive days, treatment was suspended for two weeks (6+2 weeks group). Brains were then fixed and plaque load was evaluated by immunostaining with the amyloid beta specific antibodies: β1-40 and β1-42. Representative images of plaque load in cortex and hippocampus from animals that received injections of PSB0474 according to the foregoing injection schedules are shown in FIGS. 1(A)-(D). […] Whereas, when administration of PSB0474 was stopped for 2 weeks following six consecutive days of treatment (denoted as the 6+2 weeks group), β1-40 staining rebounded; although to a level lower than observed in mice treated with saline as a vehicle control. […] FIGS. 2C-2F depict data obtained following administration of different dosages of PSB0474.
To generate these graphs showing plaque load, mice were euthanized, brain sections cut and antibodies directed against Aβ42 were used to disclose Aβ plaques. Images were acquired digitally and an algorithm was applied to threshold the image so that plaques were isolated from the background. The algorithm then calculated the percent area of the field of view occupied by the plaques.
Brain samples were collected for Abeta analysis with immunostaining. Brains samples were collected after transcardial perfusion with phosphate buffer and 4% paraformaldehyde. Floating brain sections (40 micron) were collected using a microtome. Immunostaining for […] and Aβ42 were performed according to previously established protocol. Images with DAB staining were collected with brightfield microscopy and analyzed with ImageJ Macro. All data analysis and statistics were performed in GraphPad Prism 6.0.
(§1) In this study, treatment of PSAPP mice commenced when the mice were pre-symptomatic. Specifically, treatment was initiated when the mice were approximately 3 months old. PSAPP mice were treated for 100 days with daily, intraperitoneal injections of 10 μg/kg of compound 5 or vehicle. Following treatment, mice were assessed in a fear conditioning task for memory formation. Subsequently, plaque burden in the mice was also evaluated. The data provided in Examples 16 and 17 is for 19 vehicle treated mice and 22 compound treated mice. The data provided for the vehicle-treated group is the average across those mice, and error bars depict the standard error (SEM). Similarly, the data provided for the compound-treated group is the average across those mice, and the error bars depict the SEM.
as §1, with “assessed for the following: concentration of circulating pro-inflammatory cytokines; amyloid beta load (e.g., plaque burden); and memory” for “assessed”, “formation.” for “formation. Subsequently, plaque burden in the mice was also evaluated.”, “Example 18” for “Examples 16 and 17”, “18” for “19”, “20” for “22”, “SEM. Mice were first evaluated in the fear conditioning task experiment. Subsequently, plasma was taken for multiplex cytokine analysis of circulating levels of cytokine in the plasma. Finally, plaque burden was assessed in the cortex and hippocampus of the mice.” for “SEM.”
In this study, treatment of PSAPP mice commenced after the mice were already symptomatic. Specifically, treatment was initiated when the mice were approximately 6 months old. […]

Data set [2] has as its target T1, P2Y6 receptor (Homo sapiens, UniProt Q15077). The note with it: cited from earlier work.
Data set [3] relates to PSAPP mice. The data set can be described thus: Tolerability of increased dose of PSB0474 in PSAPP mice. Type of data set: in vivo, mouse. The note with it: 1000× increase in dose.
The next data set deals with THP-1 cells. The data set can be described thus: Cytokine release from human THP-1 cells (multiplex analysis of culture medium). Type of data set: cell-based. The note with it: 24 hours, vs vehicle. As to the method:
THP-1 cells, a human cell line derived from monocytes, were treated in vitro with vehicle, the P2Y6 receptor antagonist MRS 2578, or compound 5, singly or in combination. THP-1 cells were seeded in 24 well plates at a density of 4×10^5 cells/well in culture medium for 24 hours. Thereafter, vehicle, compound 5, or MRS 2578 (singly or in combination) were added to the cultures for 24 hours. Subsequently the culture medium was aspirated and subjected to multiplex cytokine analysis. Data are presented as means+/−sem. MRS 2578 has a molecular weight of about 472 and is also described using CAS number 711019-86-2.

The target of the next data set is T2, P2Y2 receptor (Homo sapiens, UniProt P41231).
T2 construct: expressed in transfected cells; host or cells: 1321N1 human astrocytoma cells
T2 sequence (P41231 whole entry): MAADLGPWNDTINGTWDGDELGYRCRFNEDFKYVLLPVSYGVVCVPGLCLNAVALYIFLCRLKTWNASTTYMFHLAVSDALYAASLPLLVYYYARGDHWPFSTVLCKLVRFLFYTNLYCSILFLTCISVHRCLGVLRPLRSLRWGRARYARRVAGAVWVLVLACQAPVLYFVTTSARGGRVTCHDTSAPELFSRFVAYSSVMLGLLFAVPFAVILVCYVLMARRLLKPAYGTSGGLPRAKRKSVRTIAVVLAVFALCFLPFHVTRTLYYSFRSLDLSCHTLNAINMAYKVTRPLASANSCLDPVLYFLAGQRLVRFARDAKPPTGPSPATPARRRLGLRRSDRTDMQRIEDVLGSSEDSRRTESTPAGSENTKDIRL
The data set can be described thus: Ca2+ mobilizing effect (fluo-4) in 1321N1 cells expressing P2Y2 receptor. Format: cell-based. Here is the method: (§2) Nucleoside disphosphate analogs of the foregoing compounds were tested for activation of P2Y6 receptor by measuring receptor induced Ca^2+ changes with the fluorescent Ca^2+ indicator fluo-4. 1321N1 human astrocytoma cell lines either expressing P2Y2, P2Y4 or P2Y6 receptors were plated into 24-well plates. Two days after plating, fluorometric measurements were made and responses of cells to a serial dilution of compound were determined. P2Y6 receptor mediated Ca^2+ fluorescent change was determined by normalized accumulation of fluorescent change of 3 timepoints after compound administration subtracted by value from ACSF control. Changes in fluorescent intensity were plotted corresponding to compound concentration in GraphPad. Dose-response curve and EC50 for each compound was estimated using nonlinear curve fit and Sigmoidal dose-response analysis. […]
(§3) Synthetic compounds were tested for activation of P2Y6 receptor by measuring receptor induced Ca^2+ changes with the fluorescent Ca^2+ indicator fluo-4, and results are shown in FIGS. 3(A)-(K). […] Two days after plating, fluorometric measurements were made and responses of cells to a serial dilution of compound were determined. P2Y6 receptor mediated Ca^2+ fluorescent change was determined by normalized accumulation of fluorescent change of 3 timepoints after compound administration subtracted by value from ACSF control. […]

In data set [4] the target is T1, P2Y6 receptor. The data set can be described thus: Activation of P2Y6 receptor: receptor induced Ca2+ changes with fluo-4 in 1321N1 cells. Format: cell-based. Also noted: expressed in transfected cells; host or cells: 1321N1 human astrocytoma cells. As to the method: as §2, §3
Another data set has as its target T3, P2Y4 receptor (Homo sapiens, UniProt P51582).
T3 construct: expressed in transfected cells; host or cells: 1321N1 human astrocytoma cells
The data set can be described thus: Ca2+ mobilizing effect (fluo-4) in 1321N1 cells expressing P2Y4 receptor. Format: cell-based. As to the method:
as §2, §3

T1 sequence (Q15077 whole entry): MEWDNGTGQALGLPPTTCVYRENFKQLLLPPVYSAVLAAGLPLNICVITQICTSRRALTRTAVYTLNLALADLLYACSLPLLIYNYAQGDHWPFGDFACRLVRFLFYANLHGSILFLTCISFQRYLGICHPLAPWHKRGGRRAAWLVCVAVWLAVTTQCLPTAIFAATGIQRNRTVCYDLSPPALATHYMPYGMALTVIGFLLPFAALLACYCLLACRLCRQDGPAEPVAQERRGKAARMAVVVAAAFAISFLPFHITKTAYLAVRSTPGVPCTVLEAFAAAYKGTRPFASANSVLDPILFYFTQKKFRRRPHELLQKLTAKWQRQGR
T3 sequence (P51582 whole entry): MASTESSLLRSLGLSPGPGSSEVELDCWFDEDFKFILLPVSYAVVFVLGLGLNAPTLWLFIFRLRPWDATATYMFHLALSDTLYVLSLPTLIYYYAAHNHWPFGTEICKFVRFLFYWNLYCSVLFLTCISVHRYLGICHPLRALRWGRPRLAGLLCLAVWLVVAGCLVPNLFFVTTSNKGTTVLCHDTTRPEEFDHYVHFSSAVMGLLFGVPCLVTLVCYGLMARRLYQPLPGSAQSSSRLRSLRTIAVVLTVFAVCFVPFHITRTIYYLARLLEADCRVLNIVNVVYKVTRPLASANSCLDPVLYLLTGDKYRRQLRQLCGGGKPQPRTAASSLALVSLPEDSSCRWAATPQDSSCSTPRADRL

Consider `O=C(Cn1c(=O)ccn([C@@H]2O[C@H](COP(=O)(O)OP(=O)(O)O)[C@@H](O)[C@H]2O)c1=O)c1ccccc1` [3-phenacyl-UDP, reference compound], for which the β1-40 staining result in the data set with PSAPP mice [1] (6 consecutive days, then stopped for 2 weeks (6+2 weeks group), still lower than saline control) is on record as “rebounded”. The “effects on the efficacy endpoint (plaque load)” value in the data set on PSAPP mice [1] (higher dose of 1 mg/kg, FIGS. 2C-2F) was “smaller effects”. Besides, in the data set with PSAPP mice [1] (i.p. for 4 consecutive days), the “immunoreactivity of β1-40 in cortex” value was “significantly decreased” and the “immunoreactivity of β1-40 in hippocampus” value is “significantly decreased”. Moreover, in the data set with PSAPP mice [1] (i.p. for 6 consecutive days), the “immunoreactivity of β1-40 in cortex” value is reported as “significantly decreased” and the “immunoreactivity of β1-40 in hippocampus” value was “significantly decreased”. Moreover, on P2Y6 receptor [2] (P2Y6 receptor agonist), the EC50 is 70 nM. The “selectivity for P2Y6 receptor” value on P2Y6 receptor [2] was more than 500 fold. The “detrimental effects to the animal” value in the data set with PSAPP mice [3] was “did not cause detrimental effects”.
Regarding `S=C=Nc1cccc(NC(=S)NCCCCNC(=S)Nc2cccc(N=C=S)c2)c1` [MRS 2578], in the data set with THP-1 cells (FIG. 18A), the “release of fractalkine into culture media” value is listed as “increased”. The “release of PDGF-BB into culture media” value with THP-1 cells (FIG. 18B) was “increased”. In the data set on THP-1 cells (MRS 2578 alone, FIG. 18C, FIG. 19), the “release of IL-7 into culture media” value is given as “increased”.
Consider `O=c1ccn(C2OC(COP(=O)(O)OP(=O)(O)O)C(O)[C@@H]2O)c(=O)n1Cc1noc2ccccc12` (stereo partly shown), for which the “elevating Ca^2+ levels in P2Y2 receptor expressing cells” value on P2Y2 receptor is listed as “not effective”. This compound also gave an EC50 at P2Y6 receptor [4] (1321N1 human astrocytoma cells expressing P2Y6, fluo-4 Ca2+ fluorescence) of 12 nM. For the same compound, the “ability to elevate Ca^2+ signals in P2Y6 receptor expressing cells” value on P2Y6 receptor [4] (with addition of the P2Y6 antagonist MRS2578) is reported as “attenuated”. The “elevating Ca^2+ levels in P2Y4 receptor expressing cells” value on P2Y4 receptor is given as “not effective”.

Values taken from patent US20180085386A1, “URIDINE MONOPHOSPHATE AND TRIPHOSPHATE DERIVATIVES, COMPOSITIONS AND METHODS OF USE” (Tufts University, priority 2016, published 2018).
